For orientation: IC50 means the concentration at which inhibition is half-maximal.

Bounds are passed on as bounds.

The test deals with SMYD2 (Homo sapiens (Human), UniProt Q9NRG4). Briefly: SMYD2 biochemical assay (SMYD2 enzyme assay on peptide substrate, 3H-SAM Flashplate). Particulars: read-out: SMYD2 Biochem IC50; IC50 values are an average of n = 1 to n = 50.
Sequence of SMYD2 (Q9NRG4 whole entry): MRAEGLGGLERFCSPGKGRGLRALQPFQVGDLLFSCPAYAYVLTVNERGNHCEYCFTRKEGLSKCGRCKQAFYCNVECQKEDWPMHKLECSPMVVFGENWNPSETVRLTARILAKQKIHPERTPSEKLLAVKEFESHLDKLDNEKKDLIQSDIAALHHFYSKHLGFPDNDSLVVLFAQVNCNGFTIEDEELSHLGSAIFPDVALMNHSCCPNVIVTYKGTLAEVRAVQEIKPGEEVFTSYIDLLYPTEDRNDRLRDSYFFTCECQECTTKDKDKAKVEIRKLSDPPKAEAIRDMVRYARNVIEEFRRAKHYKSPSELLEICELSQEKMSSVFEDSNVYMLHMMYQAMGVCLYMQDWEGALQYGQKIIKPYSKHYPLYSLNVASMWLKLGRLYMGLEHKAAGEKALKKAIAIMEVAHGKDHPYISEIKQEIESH
Excerpt: S-adenosylmethionine (SAM), S-adenosylhomocysteine (SAH), bicine, Tween20, dimethylsulfoxide (DMSO), bovine skin gelatin (BSG), and Tris(2-carboxyethyl)phosphine hydrochloride (TCEP) were purchased from Sigma-Aldrich at the highest level of purity possible. ^3H-SAM was purchase from American Radiolabeled Chemicals with a specific activity of 80 Ci/mmol. 384-well streptavidin Flashplates were purchased from PerkinElmer.
The sequence was [sequence](K-Biot)-amide.
Production of Recombinant SMYD2 Enzymes for Biochemical Enzyme Activity Assays
Full length SMYD2 (NP_064582.2) was cloned into a pFastbac-Htb-lic vector with an N-terminal His6 tag and FLAG tag, preceded by a TEV protease cleavage site. The protein was expressed in Sf9 insect cells. Cells were resuspended in lysis buffer (25 mM HEPES-NaOH, pH 7.5, 200 mM NaCl, 5% glycerol, and 5 mM (3-ME) and lysed by sonication. The protein was purified by Ni-NTA (Qiagen), followed by TEV cleavage to remove the His6 tag, subtractive Ni-NTA (Qiagen), and gel filtration chromatography using an S200 column (GE Healthcare). Purified protein was stored in 20 mM Tris-HCl, pH 8.0, 100 mM NaCl, and 1 mM TCEP.
General Procedure for SMYD2 Enzyme Assays on Peptide Substrates
The assays were all performed in a buffer consisting of 20 mM Bicine (pH=7.6), 1 mM TCEP, 0.005% Bovine Skin Gelatin, and 0.002% Tween20, prepared on the day of use. […] DMSO (1 ul) was added to Columns 11, 12, 23, 24, rows A-H for the maximum signal control and 1 ul of SAH, a known product and inhibitor of SMYD2, was added to columns 11, 12, 23, 24, rows I-P for the minimum signal control. A cocktail (40 ul) containing the SMYD2 enzyme was added by Multidrop Combi (Thermo-Fisher). The compounds were allowed to incubate with SMYD2 for 30 min at room temperature, then a cocktail (10 ul) containing ^3H-SAM and peptide was added to initiate the reaction (final volume=51 ul). […] The assays were stopped by the addition of non-radioactive SAM (10 ul) to a final concentration of 600 uM, which dilutes the ^3H-SAM to a level where its incorporation into the peptide substrate is no longer detectable. 50 ul of the reaction in the 384-well polypropylene plate was then transferred to a 384-well Flashplate and the biotinylated peptides were allowed to bind to the streptavidin surface for at least 1 hour before being washed three times with 0.1% Tween20 in a Biotek ELx405 plate washer. The plates were then read in a PerkinElmer TopCount plate reader to measure the quantity of ^3H-labeled peptide bound to the Flashplate surface, measured as disintegrations per minute (dpm) or alternatively, referred to as counts per minute (cpm).
Where dpm=disintegrations per minute, cmpd=signal in assay well, and min and max are the respective minimum and maximum signal controls.
Where top and bottom are the normally allowed to float, but may be fixed at 100 or 0 respectively in a 3-parameter fit. The Hill Coefficient normally allowed to float but may also be fixed at 1 in a 3-parameter fit. I is the compound concentration.
Consider `COc1cccc(O)c1C(C)N1CC(NC(=O)c2cn(C3CC3)nn2)C1` (stereo not drawn) [compound 750, 1-cyclopropyl-N-{1-[1-(2-hydroxy-6-methoxyphenyl)ethyl]azetidin-3-yl}-1H-1,2,3-triazole-4-carboxamide], for which the IC50 was 1280 nM.
The same measure for `NCc1cccc(CN2CC(NC(=O)c3cn(C4CC4)nn3)C2)c1` [compound 754, N-(1-{[3-(aminomethyl)phenyl]methyl}azetidin-3-yl)-1-cyclopropyl-1H-1,2,3-triazole-4-carboxamide]: 7340 nM.
With `O=C(NC1CN(C2(c3ccccc3)CC2)C1)c1cn(C2CC2)nn1` [compound 755, 1-cyclopropyl-N-[1-(1-phenylcyclopropyl)azetidin-3-yl]-1H-1,2,3-triazole-4-carboxamide] the figure was 30500 nM; with `CNCCN1CCC(CN2CC(NC(=O)c3cn(C4CC4)nn3)C2)C1=O` (stereo not drawn) [compound 756, 1-cyclopropyl-N-[1-({1-[2-(methylamino)ethyl]-2-oxopyrrolidin-3-yl}methyl)azetidin-3-yl]-1H-1,2,3-triazole-4-carboxamide], 17000 nM.
With `CNC1CCOC(CN2CC(NC(=O)c3cn(C4CC4)nn3)C2)C1` (stereo not drawn) [compound 758, 1-cyclopropyl-N-(1-{[4-(methylamino)oxan-2-yl]methyl}azetidin-3-yl)-1H-1,2,3-triazole-4-carboxamide] the figure was over 50000 nM; with `CC(c1n[nH]c2ccccc12)N1CC(NC(=O)c2cn(C3CC3)nn2)C1` (stereo not drawn) [compound 761, 1-cyclopropyl-N-{1-[1-(1H-indazol-3-yl)ethyl]azetidin-3-yl}-1H-1,2,3-triazole-4-carboxamide], 3210 nM.
Turning to `COc1cccc2c1C(N1CC(NC(=O)c3cn(C4CC4)nn3)C1)CC2` (stereo not drawn) [compound 762, 1-cyclopropyl-N-[1-(7-methoxy-2,3-dihydro-1H-inden-1-yl)azetidin-3-yl]-1H-1,2,3-triazole-4-carboxamide], the IC50 is 7970 nM.
In the case of `O=C(NC1CN(Cc2ccc3c(c2)C(=O)NC3)C1)c1cn(C2CC2)nn1` [compound 765, 1-cyclopropyl-N-{1-[(3-oxo-2,3-dihydro-1H-isoindol-5-yl)methyl]azetidin-3-yl}-1H-1,2,3-triazole-4-carboxamide], the IC50 stood at 10200 nM.
With `O=C(NC1CN(C(c2ccccc2)C(F)(F)F)C1)c1cn(C2CC2)nn1` (stereo not drawn) [compound 766, 1-cyclopropyl-N-[1-(2,2,2-trifluoro-1-phenylethyl)azetidin-3-yl]-1H-1,2,3-triazole-4-carboxamide] the figure was over 50000 nM; with `CC(c1ccc2c(c1)OCCO2)N1CC(NC(=O)c2cn(C3CC3)nn2)C1` (stereo not drawn) [compound 767, 1-cyclopropyl-N-{1-[1-(2,3-dihydro-1,4-benzodioxin-6-yl)ethyl]azetidin-3-yl}-1H-1,2,3-triazole-4-carboxamide], 576 nM.
As to `COc1cccc(OC)c1C(C)N1CC(NC(=O)c2cn(C3CC3)nn2)C1` (stereo not drawn) [compound 768, 1-cyclopropyl-N-{1-[1-(2,6-dimethoxyphenyl)ethyl]azetidin-3-yl}-1H-1,2,3-triazole-4-carboxamide], the IC50 amounted to 1680 nM.
With `CC(c1c(Cl)cccc1Cl)N1CC(NC(=O)c2cn(C3CC3)nn2)C1` (stereo not drawn) [compound 769, 1-cyclopropyl-N-{1-[1-(2,6-dichlorophenyl)ethyl]azetidin-3-yl}-1H-1,2,3-triazole-4-carboxamide], the IC50 was determined as 1200 nM.
With `CC(C)N1CC(NC(=O)c2cn(C3CC3(F)F)nn2)C1` (stereo not drawn) [compound 770, 1-(2,2-difluorocyclopropyl)-N-[1-(propan-2-yl)azetidin-3-yl]-1H-1,2,3-triazole-4-carboxamide] the figure was 4190 nM; with `COc1c(CO)cccc1CN1CC(NC(=O)c2cn(C3CC3)nn2)C1` [compound 772, 1-cyclopropyl-N-(1-{[3-(hydroxymethyl)-2-methoxyphenyl]methyl}azetidin-3-yl)-1H-1,2,3-triazole-4-carboxamide], 10800 nM.
With `CS(=O)(=O)CC(c1ccccc1)N1CC(NC(=O)c2cn(C3CC3)nn2)C1` (stereo not drawn) [compound 773, 1-cyclopropyl-N-[1-(2-methanesulfonyl-1-phenylethyl)azetidin-3-yl]-1H-1,2,3-triazole-4-carboxamide] the figure was over 50000 nM; with `CC(c1ccc2c(c1)NC(=O)CO2)N1CC(NC(=O)c2cn(C3CC3)nn2)C1` (stereo not drawn) [compound 774, 1-cyclopropyl-N-{1-[1-(3-oxo-3,4-dihydro-2H-1,4-benzoxazin-6-yl)ethyl]azetidin-3-yl}-1H-1,2,3-triazole-4-carboxamide], 1620 nM; with `CC(c1cccc(OCCO)c1Cl)N1CC(NC(=O)c2cn(C3CC3)nn2)C1` (stereo not drawn) [compound 775, N-(1-{1-[2-chloro-3-(2-hydroxyethoxy)phenyl]ethyl}azetidin-3-yl)-1-cyclopropyl-1H-1,2,3-triazole-4-carboxamide], 49.4 nM.
With `COc1c(OCCO)cccc1C(C)N1CC(NC(=O)c2cn(C3CC3)nn2)C1` (stereo not drawn) [compound 776, 1-cyclopropyl-N-(1-{1-[3-(2-hydroxyethoxy)-2-methoxyphenyl]ethyl}azetidin-3-yl)-1H-1,2,3-triazole-4-carboxamide] the figure was 345 nM.
With `COc1nn(C)cc1CN1CC(NC(=O)c2cn(C3CC3)nn2)C1` [compound 777, 1-cyclopropyl-N-{1-[(3-methoxy-1-methyl-1H-pyrazol-4-yl)methyl]azetidin-3-yl}-1H-1,2,3-triazole-4-carboxamide], the IC50 came out at 5620 nM.
The same measure for `O=C(NC1CN(C2(c3ccccc3)COC2)C1)c1cn(C2CC2)nn1` [compound 781, 1-cyclopropyl-N-[1-(3-phenyloxetan-3-yl)azetidin-3-yl]-1H-1,2,3-triazole-4-carboxamide]: over 50000 nM; for `O=C(NC1CN(Cc2cn(CCc3ccccc3)cn2)C1)c1cn(C2CC2)nn1` [compound 782, 1-cyclopropyl-N-(1-{[1-(2-phenylethyl)-1H-imidazol-4-yl]methyl}azetidin-3-yl)-1H-1,2,3-triazole-4-carboxamide]: 2620 nM.
The same measure for `CC(=O)Nc1cccc(C(C)N2CC(NC(=O)c3cn(C4CC4)nn3)C2)c1` (stereo not drawn) [compound 783, 1-cyclopropyl-N-{1-[1-(3-acetamidophenyl)ethyl]azetidin-3-yl}-1H-1,2,3-triazole-4-carboxamide]: 3140 nM.
With `Cn1cnc(CN2CC(NC(=O)c3cn(C4CC4)nn3)C2)c1Cl` [compound 784, N-{1-[(5-chloro-1-methyl-1H-imidazol-4-yl)methyl]azetidin-3-yl}-1-cyclopropyl-1H-1,2,3-triazole-4-carboxamide] the figure was 21000 nM.
For `CC(c1c[nH]cn1)N1CC(NC(=O)c2cn(C3CC3)nn2)C1` (stereo not drawn) [compound 785, 1-cyclopropyl-N-{1-[1-(1H-imidazol-4-yl)ethyl]azetidin-3-yl}-1H-1,2,3-triazole-4-carboxamide], the IC50 stood at 2590 nM.
The same measure for `O=C(NC1CN(C(c2ccc(F)cc2)C2CC2)C1)c1cn(C2CC2)nn1` (stereo not drawn) [compound 786, 1-cyclopropyl-N-{1-[cyclopropyl(4-fluorophenyl)methyl]azetidin-3-yl}-1H-1,2,3-triazole-4-carboxamide]: 1700 nM.
In the case of `CC(C)C(c1ccccc1)N1CC(NC(=O)c2cn(C3CC3)nn2)C1` (stereo not drawn) [compound 787, 1-cyclopropyl-N-[1-(2-methyl-1-phenylpropyl)azetidin-3-yl]-1H-1,2,3-triazole-4-carboxamide], the IC50 is 1430 nM.
The same measure for `CCC(c1ccccn1)N1CC(NC(=O)c2cn(C3CC3)nn2)C1` (stereo not drawn) [compound 791, 1-cyclopropyl-N-{1-[1-(pyridin-2-yl)propyl]azetidin-3-yl}-1H-1,2,3-triazole-4-carboxamide]: 2470 nM.
`O=C(NC1CN(Cc2cnn(Cc3ccccc3)c2)C1)c1cn(C2CC2)nn1` [compound 792, N-{1-[(1-benzyl-1H-pyrazol-4-yl)methyl]azetidin-3-yl}-1-cyclopropyl-1H-1,2,3-triazole-4-carboxamide]: the IC50 was 16.4 nM.
The same measure for `COc1ccc2c(c1)CCCC2N1CC(NC(=O)c2cn(C3CC3)nn2)C1` (stereo not drawn) [compound 793, 1-cyclopropyl-N-[1-(6-methoxy-1,2,3,4-tetrahydronaphthalen-1-yl)azetidin-3-yl]-1H-1,2,3-triazole-4-carboxamide]: 9920 nM.
The same measure for `COc1c(CN)cccc1CN1CC(NC(=O)c2cn(C3CC3)nn2)C1` [compound 794, N-(1-{[3-(aminomethyl)-2-methoxyphenyl]methyl}azetidin-3-yl)-1-cyclopropyl-1H-1,2,3-triazole-4-carboxamide]: 32300 nM.
In the case of `O=C(NC1CN(Cc2cn(Cc3ccccc3)cn2)C1)c1cn(C2CC2)nn1` [compound 795, N-{1-[(1-benzyl-1H-imidazol-4-yl)methyl]azetidin-3-yl}-1-cyclopropyl-1H-1,2,3-triazole-4-carboxamide], the IC50 was determined as 7150 nM.
The same measure for `CC(c1ccccc1OCc1ccccc1)N1CC(NC(=O)c2cn(C3CC3)nn2)C1` (stereo not drawn) [compound 796, N-(1-{1-[2-(benzyloxy)phenyl]ethyl}azetidin-3-yl)-1-cyclopropyl-1H-1,2,3-triazole-4-carboxamide]: 422 nM; for `CC(c1ccc(-n2ccnc2)cc1)N1CC(NC(=O)c2cn(C3CC3)nn2)C1` (stereo not drawn) [compound 797, 1-cyclopropyl-N-(1-{1-[4-(1H-imidazol-1-yl)phenyl]ethyl}azetidin-3-yl)-1H-1,2,3-triazole-4-carboxamide]: 1570 nM; for `CCC(c1ccccc1F)N1CC(NC(=O)c2cn(C3CC3)nn2)C1` (stereo not drawn) [compound 798, 1-cyclopropyl-N-{1-[1-(2-fluorophenyl)propyl]azetidin-3-yl}-1H-1,2,3-triazole-4-carboxamide]: 425 nM.
With `CC(C)N1CC(NC(=O)c2cn(C3CC3)nn2)C1(C)C` (stereo not drawn) [compound 799, 1-cyclopropyl-N-[2,2-dimethyl-1-(propan-2-yl)azetidin-3-yl]-1H-1,2,3-triazole-4-carboxamide] the figure was 9600 nM.
The same measure for `COc1cc(OCc2ccccc2)ccc1C(C)N1CC(NC(=O)c2cn(C3CC3)nn2)C1` (stereo not drawn) [compound 800, N-(1-{1-[4-(benzyloxy)-2-methoxyphenyl]ethyl}azetidin-3-yl)-1-cyclopropyl-1H-1,2,3-triazole-4-carboxamide]: 965 nM.

The values above are taken from patent publication US10266526B2, “Substituted 1,2,3-triazoles as SMYD inhibitors for treating cancer” (EPIZYME, INC., priority 2014, dated 2019).
